From patent USRE48097E1, “Cephem compounds, their production and use” (priority 2015, dated 2020)
In brackets after ≈: the same amount, converted by molar mass. Like-named read-outs stand apart in the source and are kept apart here.

What was measured:
Format in all cases: cell-based
P. aeruginosa 2686 = test: MIC against P. aeruginosa 2686; settings: Table 3, P. aeruginosa 2686, KPC-2
Description: (§1) As shown, the foregoing composition was tested for minimum inhibitory concentration (MIC, μg/mL) against bacteria listed in Tables 2-3.

K. pneumoniae 4108 = test: MIC against K. pneumoniae 4108; settings: K. pneumoniae 4108, KPC-3, TEM-166, SHV-12, SHV-141
Description: as §1

E. cloacae 2044 = test: MIC against E. cloacae 2044; settings: Table 2, E. cloacae 2044, Caz S, IMP S
Method in brief: (§2)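 Values give the minimum inhibitory concentration in μg/mL, determined for the cephem alone or in combination with a β-lactamase inhibitor.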

E. coli 4080 = test: MIC against E. coli 4080; settings: Table 2, E. coli 4080, TEM-10
Method in brief: as §2

E. cloacae 2710 = test: MIC against E. cloacae 2710; settings: Table 3, E. cloacae 2710, KPC-3, VIM-1
Description: as §1

K. baumanii 4091 = test: MIC against K. baumanii 4091; settings: Table 2, K. baumanii 4091, OXA-23
Method in brief: as §2

E. cloacae 2706 = test: MIC against E. cloacae 2706; settings: Table 3, E. cloacae 2706, VIM-1, KPC-3
Description: as §1

K. pneumoniae 2713 = test: MIC against K. pneumoniae 2713; settings: Table 3, K. pneumoniae 2713, KPC-3, VIM-1
Description: as §1

S. pneumoniae ATCC 6301 = test: MIC against S. pneumoniae ATCC 6301; settings: Table 2, S. pneumoniae ATCC 6301, Pen S
Method in brief: as §2

E. coli 4098 = test: MIC against E. coli 4098; settings: Table 2, E. coli 4098, CTX-M-15, TEM-1
Method in brief: as §2

S. pneumoniae 2405 = test: MIC against S. pneumoniae 2405; settings: Table 2, S. pneumoniae 2405, Pen S
Method in brief: as §2

E. coli 2671 = test: MIC against E. coli 2671; settings: Table 2, E. coli 2671, VIM-19
Method in brief: as §2

S. pneumoniae 2492 = test: MIC against S. pneumoniae 2492; settings: Table 2, S. pneumoniae 2492, Pen R
Method in brief: as §2

C. freundii 579 = test: MIC against C. freundii 579; settings: Table 2, C. freundii 579, Caz R, IMP S
Method in brief: as §2

K. baumanii 2579 = test: MIC against K. baumanii 2579; settings: Table 2, K. baumanii 2579, OXA-25
Method in brief: as §2

K. pneumoniae 2689 = test: MIC against K. pneumoniae 2689; settings: K. pneumoniae 2689, KPC-2
Description: as §1

E. coli 2668 = test: MIC against E. coli 2668; settings: Table 2, E. coli 2668, OXA-48
Method in brief: as §2

S. pneumoniae 2404 = test: MIC against S. pneumoniae 2404; settings: Table 2, S. pneumoniae 2404, Pen S
Method in brief: as §2

S. pneumoniae 2406 = test: MIC against S. pneumoniae 2406; settings: Table 2, S. pneumoniae 2406, Pen S
Method in brief: as §2

C. freundii 580 = test: MIC against C. freundii 580; settings: Table 2, C. freundii 580, Caz R, IMP S
Method in brief: as §2

S. aureus 3144 = test: MIC against S. aureus 3144; settings: Table 2, S. aureus 3144, MSSA
Method in brief: as §2

S. aureus 3136 = test: MIC against S. aureus 3136; settings: Table 2, S. aureus 3136, MSSA
Method in brief: as §2

S. pneumoniae 2407 = test: MIC against S. pneumoniae 2407; settings: Table 2, S. pneumoniae 2407, Pen S
Method in brief: as §2

S. pneumoniae 2493 = test: MIC against S. pneumoniae 2493; settings: Table 2, S. pneumoniae 2493, Pen R
Method in brief: as §2

[1] = Table 2, in combination with NXL-104
[2] = Table 3, in combination with NXL-104
[3] = Enterobacter cloacae, alone, read-out: MIC
[4] = Escherichia coli, alone, read-out: MIC
[5] = Streptococcus pneumoniae, alone, read-out: MIC
[6] = Citrobacter freundii, alone, read-out: MIC
[7] = Staphylococcus aureus, alone, read-out: MIC

MIC (P. aeruginosa 2686; Pseudomonas aeruginosa, alone, read-out: MIC): > 32 µg/mL
MIC (P. aeruginosa 2686; in combination with NXL-104): 16 µg/mL
MIC (K. pneumoniae 4108; Klebsiella pneumoniae, 4108, Table 2, alone, read-out: MIC): 4 µg/mL (≈ 5.64 µM)
MIC (K. pneumoniae 4108; Klebsiella pneumoniae, 4108, Table 3, alone, read-out: MIC): > 32 µg/mL
MIC (K. pneumoniae 4108; [1]): 1.00 µg/mL
MIC (K. pneumoniae 4108; [2]): 2 µg/mL
MIC (E. cloacae 2044; [3]): 0.25 µg/mL
MIC (E. cloacae 2044; in combination with NXL-104): 0.12 µg/mL
MIC (E. coli 4080; [4]): 8 µg/mL
MIC (E. coli 4080; in combination with NXL-104): 1.00 µg/mL
MIC (E. cloacae 2710; [3]): > 32 µg/mL
MIC (E. cloacae 2710; in combination with NXL-104): >32 µg/mL
MIC (K. baumanii 4091; alone, read-out: MIC): 8 µg/mL
MIC (K. baumanii 4091; in combination with NXL-104): 2.00 µg/mL
MIC (E. cloacae 2706; [3]): > 32 µg/mL
MIC (E. cloacae 2706; in combination with NXL-104): 32 µg/mL
MIC (K. pneumoniae 2713; Klebsiella pneumoniae, alone, read-out: MIC): > 32 µg/mL
MIC (K. pneumoniae 2713; in combination with NXL-104): 2 µg/mL
MIC (S. pneumoniae ATCC 6301; Streptococcus pneumoniae, ATCC6301, alone, read-out: MIC): ≤ 0.06 µg/mL
MIC (S. pneumoniae ATCC 6301; in combination with NXL-104): ≤0.06 µg/mL
MIC (E. coli 4098; [4]): 1 µg/mL
MIC (E. coli 4098; in combination with NXL-104): 0.25 µg/mL
MIC (S. pneumoniae 2405; [5]): 0.12 µg/mL
MIC (S. pneumoniae 2405; in combination with NXL-104): ≤0.06 µg/mL
MIC (E. coli 2671; [4]): 4 µg/mL
MIC (E. coli 2671; in combination with NXL-104): 4.00 µg/mL
MIC (S. pneumoniae 2492; [5]): 8 µg/mL
MIC (S. pneumoniae 2492; in combination with NXL-104): 8.00 µg/mL
MIC (C. freundii 579; [6]): 2 µg/mL
MIC (C. freundii 579; in combination with NXL-104): 0.50 µg/mL
MIC (K. baumanii 2579; alone, read-out: MIC): > 32 µg/mL
MIC (K. baumanii 2579; in combination with NXL-104): 32.00 µg/mL
MIC (K. pneumoniae 2689; Klebsiella pneumoniae, 2689, Table 2, alone, read-out: MIC): 8 µg/mL (≈ 11.3 µM)
MIC (K. pneumoniae 2689; Klebsiella pneumoniae, 2689, Table 3, alone, read-out: MIC): 32 µg/mL (≈ 45.1 µM)
MIC (K. pneumoniae 2689; [1]): 2.00 µg/mL
MIC (K. pneumoniae 2689; [2]): 2 µg/mL
MIC (E. coli 2668; [4]): 0.5 µg/mL
MIC (E. coli 2668; in combination with NXL-104): 0.25 µg/mL
MIC (S. pneumoniae 2404; [5]): 0.25 µg/mL
MIC (S. pneumoniae 2404; in combination with NXL-104): 0.25 µg/mL
MIC (S. pneumoniae 2406; [5]): ≤ 0.06 µg/mL
MIC (S. pneumoniae 2406; in combination with NXL-104): ≤0.06 µg/mL
MIC (C. freundii 580; [6]): 4 µg/mL
MIC (C. freundii 580; in combination with NXL-104): 0.50 µg/mL
MIC (S. aureus 3144; [7]): 4 µg/mL
MIC (S. aureus 3144; in combination with NXL-104): 4.00 µg/mL
MIC (S. aureus 3136; [7]): 2 µg/mL
MIC (S. aureus 3136; in combination with NXL-104): 2.00 µg/mL
MIC (S. pneumoniae 2407; [5]): 0.12 µg/mL
MIC (S. pneumoniae 2407; in combination with NXL-104): 0.12 µg/mL
MIC (S. pneumoniae 2493; [5]): 8 µg/mL
MIC (S. pneumoniae 2493; in combination with NXL-104): 8.00 µg/mL
Structure (SMILES): CC(C)(O/N=C(\C(=O)N[C@@H]1C(=O)N2C(C(=O)[O-])=C(C[n+]3ccc4n3CCN4Cc3ccc(C(=N)N)cc3)CS[C@H]12)c1csc(N)n1)C(=O)O [Example 2, (6R,7R)-7-{[(2Z)-2-(2-Amino-1,3-thiazol-4-yl)-2-{[(2-carboxypropan-2-yl)oxy]imino}acetyl]amino}-3-{[1-(4-carbamimidoylbenzyl)-2,3-dihydro-1H-imidazo[1,2-b]pyrazol-5-ium-5-yl]methyl}-8-oxo-5-thia-1-azabicyclo[4.2.0]oct-2-ene-2-carboxylate]
